Experimental data taken from patent US20220273659A1, “HETEROCYCLIC COMPOUNDS AS KINASE INHIBITORS” (NUVATION BIO INC., priority 2019, published 2022).

Key:
[1] = tested on: MCF-7 breast adenocarcinoma cells; test: Cancer cell proliferation assay, single agent (cell viability); assay type: cell-based; conditions: Homo sapiens, MCF7, Table 4; Rb positive; treatment 144 Hr with medium change at 72 Hr; Cell Titer-Glo or resazurin
Summary of the method: (§1)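 Cells seeded day 1, then exposed on day 2 to 7–9 compound concentrations (e.g. 1.1 nM–10 μM); BT-549 for 24 h, MCF-7 and DU4475 for 144 h with medium change at 72 h. Viability by CellTiter-Glo or resazurin; IC50 from variable-slope sigmoidal fit.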

[2] = tested on: DU4475 breast carcinoma cells; test: as above; assay type: cell-based; conditions: Homo sapiens, DU-4475; Table 4; Rb negative; treatment 144 Hr with medium change at 72 Hr; Cell Titer-Glo or resazurin
Summary of the method: as §1

[3] = biological target: T1, CDK6 (Homo sapiens, UniProt Q00534); test: In vitro kinase inhibition IC50, luminescence (ADP Glo), retinoblastoma substrate; assay type: biochemical; conditions: read-out: CDK6/D1 IC50
T1 construct: purchased Invitrogen PR8422B
T1 sequence (Q00534 whole entry): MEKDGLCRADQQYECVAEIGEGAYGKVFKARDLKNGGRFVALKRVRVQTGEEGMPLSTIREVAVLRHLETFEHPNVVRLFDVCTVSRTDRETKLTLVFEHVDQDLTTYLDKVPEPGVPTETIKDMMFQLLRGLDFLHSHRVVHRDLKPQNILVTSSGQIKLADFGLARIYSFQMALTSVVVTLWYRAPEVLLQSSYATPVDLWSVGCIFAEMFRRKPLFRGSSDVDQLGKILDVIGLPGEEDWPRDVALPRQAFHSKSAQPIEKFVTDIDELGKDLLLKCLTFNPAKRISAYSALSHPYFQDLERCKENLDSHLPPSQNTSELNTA
T1 sequence (P24385 whole entry partner): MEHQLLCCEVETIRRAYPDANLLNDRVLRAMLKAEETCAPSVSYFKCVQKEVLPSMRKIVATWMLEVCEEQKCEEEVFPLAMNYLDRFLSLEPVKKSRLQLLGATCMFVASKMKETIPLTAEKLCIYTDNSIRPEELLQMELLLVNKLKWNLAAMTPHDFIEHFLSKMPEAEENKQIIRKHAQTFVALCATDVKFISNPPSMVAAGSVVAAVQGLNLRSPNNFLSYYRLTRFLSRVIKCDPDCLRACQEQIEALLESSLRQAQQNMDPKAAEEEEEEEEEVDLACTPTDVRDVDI
Summary of the method: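 Recombinant CDK6 (5 nM) with retinoblastoma substrate (1 μM) and 25 μM ATP, compound at final 0.1–200 nM, incubated 2 h at room temperature. ADP formed detected by ADP-Glo luminescence. IC50 from four-parameter logistic fit of percent inhibition.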

[4] = biological target: T2, CDK4 (Homo sapiens, UniProt P11802); test: as above; assay type: biochemical; conditions: read-out: CDK4/D1 IC50
T2 construct: purchased Invitrogen PR8064A
T2 sequence (P11802 whole entry): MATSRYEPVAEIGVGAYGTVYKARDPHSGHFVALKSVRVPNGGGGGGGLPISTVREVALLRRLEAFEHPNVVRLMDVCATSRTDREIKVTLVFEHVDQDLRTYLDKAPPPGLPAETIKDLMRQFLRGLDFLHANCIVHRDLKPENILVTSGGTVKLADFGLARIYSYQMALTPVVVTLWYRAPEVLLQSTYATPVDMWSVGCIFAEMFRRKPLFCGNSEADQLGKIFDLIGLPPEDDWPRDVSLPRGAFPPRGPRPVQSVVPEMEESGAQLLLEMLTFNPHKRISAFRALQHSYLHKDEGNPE
T2 sequence (P24385 whole entry partner): as the sequence (P24385 whole entry partner) above
Summary of the method: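 CDK4 enzyme (5 nM, Invitrogen) was combined with test compound and a mix of retinoblastoma substrate (1 μM) plus ATP (25 μM) in kinase buffer, 30 μL/well in 96-well half area white plates. After 2H at room temperature, ADP Glo reagent stopped the reaction for 45 min, then detection reagent was added and luminescence was read.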

[5] = biological target: T3, PI3Kδ kinase (Homo sapiens, UniProt O00329); test: PI3Kδ kinase assay (ADP-Glo, Reaction Biology); assay type: biochemical
T3 construct: purchased Reaction Biology Corporation (assay service)
T3 sequence (O00329 whole entry): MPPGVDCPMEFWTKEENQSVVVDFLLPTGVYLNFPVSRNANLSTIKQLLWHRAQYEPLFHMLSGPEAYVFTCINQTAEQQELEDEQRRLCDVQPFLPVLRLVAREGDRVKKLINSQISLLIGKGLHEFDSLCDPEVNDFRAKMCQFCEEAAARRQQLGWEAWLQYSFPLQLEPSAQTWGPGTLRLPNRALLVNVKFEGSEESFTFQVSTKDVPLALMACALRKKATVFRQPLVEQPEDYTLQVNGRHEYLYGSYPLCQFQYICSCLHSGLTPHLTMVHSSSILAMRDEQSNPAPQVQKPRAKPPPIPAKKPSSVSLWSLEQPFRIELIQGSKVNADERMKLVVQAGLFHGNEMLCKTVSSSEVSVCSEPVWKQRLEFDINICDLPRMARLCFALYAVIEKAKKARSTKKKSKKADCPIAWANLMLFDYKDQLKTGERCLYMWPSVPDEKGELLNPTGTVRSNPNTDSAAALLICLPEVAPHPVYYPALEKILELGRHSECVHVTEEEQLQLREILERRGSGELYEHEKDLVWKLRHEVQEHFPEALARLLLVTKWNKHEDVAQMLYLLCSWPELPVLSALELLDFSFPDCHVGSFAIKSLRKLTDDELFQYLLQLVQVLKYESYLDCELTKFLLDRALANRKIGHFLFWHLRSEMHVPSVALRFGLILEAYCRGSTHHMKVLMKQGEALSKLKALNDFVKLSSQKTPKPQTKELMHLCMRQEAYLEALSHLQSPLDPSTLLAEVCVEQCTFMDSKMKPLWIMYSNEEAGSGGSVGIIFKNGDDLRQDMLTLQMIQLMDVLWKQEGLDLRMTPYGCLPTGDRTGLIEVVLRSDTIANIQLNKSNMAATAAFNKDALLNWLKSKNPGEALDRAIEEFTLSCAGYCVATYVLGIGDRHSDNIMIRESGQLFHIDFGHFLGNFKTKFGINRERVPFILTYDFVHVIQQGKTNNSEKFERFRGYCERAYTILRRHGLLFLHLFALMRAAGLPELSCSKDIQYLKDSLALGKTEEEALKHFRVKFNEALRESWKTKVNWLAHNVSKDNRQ
T3 sequence (P27986 whole entry partner): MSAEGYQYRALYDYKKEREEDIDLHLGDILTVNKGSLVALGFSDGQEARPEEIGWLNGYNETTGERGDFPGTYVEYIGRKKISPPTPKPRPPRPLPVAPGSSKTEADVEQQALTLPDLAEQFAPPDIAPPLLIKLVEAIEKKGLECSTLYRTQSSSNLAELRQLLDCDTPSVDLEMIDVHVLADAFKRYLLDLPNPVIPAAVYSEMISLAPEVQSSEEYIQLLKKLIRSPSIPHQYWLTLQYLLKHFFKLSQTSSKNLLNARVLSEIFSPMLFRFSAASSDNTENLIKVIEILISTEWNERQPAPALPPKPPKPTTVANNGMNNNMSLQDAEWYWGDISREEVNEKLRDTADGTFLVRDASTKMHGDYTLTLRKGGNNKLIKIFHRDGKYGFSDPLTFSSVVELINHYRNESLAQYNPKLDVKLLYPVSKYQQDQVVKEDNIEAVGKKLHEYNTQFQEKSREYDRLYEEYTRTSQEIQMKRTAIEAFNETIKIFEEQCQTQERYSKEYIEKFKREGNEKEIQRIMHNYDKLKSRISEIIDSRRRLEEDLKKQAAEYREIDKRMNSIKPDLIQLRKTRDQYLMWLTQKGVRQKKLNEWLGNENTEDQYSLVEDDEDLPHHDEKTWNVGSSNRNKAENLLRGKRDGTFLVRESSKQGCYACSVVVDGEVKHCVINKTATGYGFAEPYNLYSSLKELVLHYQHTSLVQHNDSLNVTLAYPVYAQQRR
Description: IC50 values of compounds against the PI3Kδ kinase were determined by an assay performed by Reaction Biology Corporation (Malvern, Pa.). Briefly, this assay was conducted in buffer (Tris-HCl 40 mM (pH7.5), Orthovanadate 3 mM, MgCl2 20 mM, DTT 2 mM, CHAPS 0.05%, DMSO 1%). PI3Kδ kinase was added to the reaction solution and mixed gently. The test compounds in 100% DMSO (at specific solutions) were mixed with the kinase reaction mixture to achieve the final compounds at pre-defined concentrations (e.g., range −0.5 nM to 100 μM) by Acoustic technology (Echo550; nanoliter range). After incubating for 10 min at room temp, ATP was added into the reaction mixture to initiate the reaction followed by a 30-min incubation at 30° C. After quenching the reaction with ADP-Glo reagent, the plates were incubated for 40 min. The Detection Mixture was added, and the plate was incubated for an additional 30 min. At the end of incubation, luminescence was measured. For data analysis, the luminescence was converted into μM ADP production based on ADP standard curves. The nonlinear regression to obtain the standard curve and IC50 values was performed using GraphPad Prism (GraphPad Software, Inc., San Diego, Calif.).

[6] = biological target: T4, FMS kinase (Homo sapiens, UniProt P07333); test: LanthaScreen Eu Kinase Binding Assay (ATP, fluorescent-PolyGT substrate); assay type: biochemical
T4 construct: purchased Invitrogen (Life Technologies)
T4 sequence (P07333 20-972): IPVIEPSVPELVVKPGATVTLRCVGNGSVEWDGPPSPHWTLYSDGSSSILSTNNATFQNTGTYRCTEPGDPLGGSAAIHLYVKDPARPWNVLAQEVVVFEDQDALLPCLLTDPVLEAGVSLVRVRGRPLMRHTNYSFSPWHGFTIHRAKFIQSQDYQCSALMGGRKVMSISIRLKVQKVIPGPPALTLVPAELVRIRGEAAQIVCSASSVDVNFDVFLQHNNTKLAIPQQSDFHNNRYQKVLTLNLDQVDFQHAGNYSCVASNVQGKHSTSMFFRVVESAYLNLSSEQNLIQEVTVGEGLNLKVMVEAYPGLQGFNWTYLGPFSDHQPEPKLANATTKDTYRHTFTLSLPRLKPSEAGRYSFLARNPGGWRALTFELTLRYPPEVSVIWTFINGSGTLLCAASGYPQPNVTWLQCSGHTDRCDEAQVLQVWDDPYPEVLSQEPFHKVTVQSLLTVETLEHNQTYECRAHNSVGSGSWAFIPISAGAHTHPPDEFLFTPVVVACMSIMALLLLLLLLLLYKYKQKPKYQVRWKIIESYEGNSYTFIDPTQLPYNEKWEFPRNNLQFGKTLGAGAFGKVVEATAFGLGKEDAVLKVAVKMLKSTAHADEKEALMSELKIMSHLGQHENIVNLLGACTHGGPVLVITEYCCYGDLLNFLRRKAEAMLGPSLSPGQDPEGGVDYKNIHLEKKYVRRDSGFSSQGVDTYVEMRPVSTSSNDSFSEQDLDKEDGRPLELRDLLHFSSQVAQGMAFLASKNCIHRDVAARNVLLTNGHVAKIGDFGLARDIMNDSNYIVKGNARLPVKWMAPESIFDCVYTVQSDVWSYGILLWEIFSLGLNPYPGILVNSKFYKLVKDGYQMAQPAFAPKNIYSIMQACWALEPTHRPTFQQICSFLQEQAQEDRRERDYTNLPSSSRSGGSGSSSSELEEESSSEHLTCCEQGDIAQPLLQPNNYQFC
Summary of the method: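 Kinase (1.25 nM) preincubated 10 min with 3-fold compound dilutions, then ATP 10 μM and fluorescent PolyGT substrate 200 nM added for 1 h in the dark at room temperature. Stopped with Tb-antibody (4 nM) and EDTA 20 mM; TR-FRET at 340 nm excitation, 495/520 nm emission; IC50 from four-parameter fit.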

[7] = biological target: T5, CDK2 (cyclin A) (Homo sapiens, UniProt P24941); test: Z'-LYTE kinase assay; assay type: biochemical
T5 construct: purchased Invitrogen Life Technologies (assay service)
Description: IC50 values of compounds against CDK2 (cyclin A) were determined by Z′-LYTE™ These screening assays were performed at Invitrogen Life Technologies (Grand Island, N.Y.) on a low volume NBS, black 384-well plate (#4514, Corning). 0.1 μL of 100×test compound in 100% DMSO (at specific solutions) was mixed with 2.4 μL of Kinase Buffer (50 mM HEPES pH 7.5, 0.01% BRIJ-35, 10 mM MgCl2, 1 mM EGTA), 5 μL of 2× Kinase (1.22-10.3 ng CDK2/cyclin A)/Peptide (2 μM Ser/Thr 12), and 2.5 μL of 4×ATP solution (31 μM). The plates were shaken for 30 seconds, and incubated for 60 minutes at room temperature. Development Reagent Solution (5 μL of 1:1024 dilution) was added to the plates followed with another 30-second plate shake and the plates were further incubated at room temperature for one hour. The plates were read on fluorescence plate reader with Dual emission at 445 nm and 520 nm.
The following equations were used for Z′-LYTE™ Screening Assay Data Analysis. Percent inhibition (100-% activity) was fitted to the “four-parameter logistic model” in XLfit for determination of IC50 values.

SMILES | IC50 [1] [nM] | IC50 [2] [nM] | IC50 [3] [nM] | IC50 [4] [nM] | IC50 [5] [nM] | IC50 [6] [nM] | IC50 [7] [nM]
CN1CCC(c2ccc(Nc3ncc4cc(C#N)c(=O)n(C5CCCC5)c4n3)cc2)CC1 [Compound No. 40, 8-cyclopentyl-2-((4-(1-methylpiperidin-4-yl)phenyl)amino)-7-oxo-7,8-dihydropyrido[2,3-d]pyrimidine-6-carbonitrile] | 133 | 2800 | 76 | > 200 | 416 | 1 | –
N#Cc1cc2cnc(Nc3ccc(C4CCNCC4)cc3)nc2n(C2CCCC2)c1=O [Compound No. 37, 8-cyclopentyl-7-oxo-2-((4-(piperidin-4-yl)phenyl)amino)-7,8-dihydropyrido[2,3-d]pyrimidine-6-carbonitrile] | 353 | 2220 | 2.5 | 6.5 | 64 | 5.8 | –
COCCn1cc(Nc2ncc3cc(C#N)c(=O)n(C4CCCC4)c3n2)cn1 [Compound No. 104, 8-cyclopentyl-2-((1-(2-methoxyethyl)-1H-pyrazol-4-yl)amino)-7-oxo-7,8-dihydropyrido [2,3-d] pyrimidine-6-carbonitrile] | 1040 | 2520 | 56 | > 180 | 75 | – | 140
CN1CCC(n2cc(Nc3ncc4cc(C#N)c(=O)n(C5CCCC5)c4n3)cn2)CC1 [Compound No. 325, 8-cyclopentyl-2-((1-(1-methylpiperidin-4-yl)-1H-pyrazol-4-yl)amino)-7-oxo-7,8-dihydropyrido [2,3-d] pyrimidine-6-carbonitrile] | 445 | 2420 | 36 | 70 | 22 | – | 382
N#Cc1cc2cnc(Nc3ccn(C4CCNCC4)c(=O)c3)nc2n(C2CCCC2)c1=O [Compound No. 60, 8-cyclopentyl-7-oxo-2-((2-oxo-1-(piperidin-4-yl)-1,2-dihydropyridin-4-yl)amino)-7,8-dihydropyrido[2,3-d]pyrimidine-6-carbonitrile] | 6900 | 5080 | 55 | 52 | 34 | 18 | –
CN(C)CC(=O)N1CCc2ccc(Nc3ncc4cc(C#N)c(=O)n(C5CCCC5)c4n3)cc2C1 [Compound No. 53, 8-cyclopentyl-2-((2-(dimethylglycyl)-1,2,3,4-tetrahydroisoquinolin-7-yl)amino)-7-oxo-7,8-dihydropyrido[2,3-d]pyrimidine-6-carbonitrile] | 190 | 1280 | 4 | 2.5 | 249 | 9.5 | –
CN(C)CC1Cc2ccc(Nc3ncc4cc(C#N)c(=O)n(C5CCCC5)c4n3)cc2C(=O)N1 (centres unmarked) [Compound No. 22, 8-cyclopentyl-2-((3-((dimethylamino)methyl)-1-oxo-1,2,3,4-tetrahydroisoquinolin-7-yl)amino)-7-oxo-7,8-dihydropyrido[2,3-d]pyrimidine-6-carbonitrile] | 1020 | – | 65 | > 200 | 43 | < 1 | –
N#Cc1cc2cnc(Nc3ccc(C4CCNCC4)c(F)c3)nc2n(C2CCCC2)c1=O [Compound No. 43, 8-cyclopentyl-2-((3-fluoro-4-(piperidin-4-yl)phenyl)amino)-7-oxo-7,8-dihydropyrido[2,3-d]pyrimidine-6-carbonitrile] | 180 | – | 3 | 5 | 180 | 1.5 | –
CC(C)N1CCc2cc(Nc3ncc4cc(C#N)c(=O)n(C5CCCC5)c4n3)ccc2C1 [Compound No. 45, 8-cyclopentyl-2-((2-isopropyl-1,2,3,4-tetrahydroisoquinolin-6-yl)amino)-7-oxo-7,8-dihydropyrido[2,3-d]pyrimidine-6-carbonitrile] | 428 | – | 19 | 4.5 | 490 | 2 | –
CN(C)C1Cc2ccc(Nc3ncc4cc(C#N)c(=O)n(C5CCCC5)c4n3)cc2C1 (centres unmarked) [Compound No. 47, 8-cyclopentyl-2-((2-(dimethylamino)-2,3-dihydro-1H-inden-5-yl)amino)-7-oxo-7,8-dihydropyrido[2,3-d]pyrimidine-6-carbonitrile] | 345 | – | 4 | 9.5 | 345 | 2.5 | –

Results, then the compound that gave them:

IC50 [1] [nM] | IC50 [2] [nM] | IC50 [3] [nM] | IC50 [4] [nM] | IC50 [5] [nM] | IC50 [6] [nM] | IC50 [7] [nM] | SMILES
150 | 1100 | 3.5 | 3 | 248 | 7 | – | CN(C)CC(=O)N1CCc2cc(Nc3ncc4cc(C#N)c(=O)n(C5CCCC5)c4n3)ccc2C1 [Compound No. 54, 8-cyclopentyl-2-((2-(dimethylglycyl)-1,2,3,4-tetrahydroisoquinolin-6-yl)amino)-7-oxo-7,8-dihydropyrido[2,3-d]pyrimidine-6-carbonitrile]
90 | 1640 | 1 | 1 | 310 | < 1 | – | CN1CCN(c2ccc(Nc3ncc4cc(C#N)c(=O)n(C5CCCC5)c4n3)cc2CO)CC1 [Compound No. 10, 8-cyclopentyl-2-((3-(hydroxymethyl)-4-(4-methylpiperazin-1-yl)phenyl)amino)-7-oxo-7,8-dihydropyrido[2,3-d]pyrimidine-6-carbonitrile]
540 | 1320 | 22 | 6 | 1310 | 1 | – | N#Cc1cc2cnc(Nc3ccc(N4CCN5CCCCC5C4)c(F)c3)nc2n(C2CCCC2)c1=O (centres unmarked) [Compound No. 59, 8-cyclopentyl-2-((3-fluoro-4-(octahydro-2H-pyrido[1,2-a]pyrazin-2-yl)phenyl)amino)-7-oxo-7,8-dihydropyrido[2,3-d]pyrimidine-6-carbonitrile]
1480 | 5180 | 12 | 6.5 | 249 | 1 | – | N#Cc1cc2cnc(Nc3ccc(N4CCNCC4=O)c(F)c3)nc2n(C2CCCC2)c1=O [Compound No. 57, 8-cyclopentyl-2-((3-fluoro-4-(2-oxopiperazin-1-yl)phenyl)amino)-7-oxo-7,8-dihydropyrido[2,3-d]pyrimidine-6-carbonitrile]
480 | 1260 | 16 | 6.5 | 1690 | 0.6 | – | N#Cc1cc2cnc(Nc3ccc(N4CCN5CCCC5C4)c(F)c3)nc2n(C2CCCC2)c1=O (centres unmarked) [Compound No. 55, 8-cyclopentyl-2-((3-fluoro-4-(hexahydropyrrolo[1,2-a]pyrazin-2(1H)-yl)phenyl)amino)-7-oxo-7,8-dihydropyrido[2,3-d]pyrimidine-6-carbonitrile]
